Reference: patent US20150335624A1, “COMPOSITIONS AND METHODS FOR USING HUPERZINE AND ANALOGS THEREOF” (INSERO HEALTH INC., priority 2013, published 2015)
Several values for one entry are separate records, joined by “and”; a condition that tells them apart may be missing. Equal entries are not always repeated.

What was measured:
Format in all cases: in vivo, human
[1] = Phase 1 clinical trial, peak plasma level of huperzine A
Protocol: (§1) A phase 1 clinical trial was conducted with huperzine A. The primary aim of the study was to conduct a proof-of-principle assessment of the safety and tolerability and early stage pharmacokinetics of dietary supplement Huperzine A up to 6.4 mg/day as add-on, open-label therapy in 8 subjects with drug-resistant epilepsy. The hypothesis was that Huperzine A in 8 subjects with drug-resistant epilepsy as add-on; open-label therapy would be well tolerated when titrated from 1.6 mg/day up to 6.4 mg/day. The secondary aim was to acquire preliminary data on the parasympathetic effect of Huperzine A on cardiac function.
(§2) The trial was a single-center, in-patient, open-label, dose-escalation study conducted at one site. This study would enroll up to 10 adults (≧18 years to 65 years) to obtain 8 randomized subjects with drug-resistant epilepsy that were not well controlled with 1 to 3 concomitant anti-epileptic drugs (AEDs).
The study drug was supplied as 0.200 mg tablets and dispensed by the study site's pharmacy. Huperzine A tablets derived from Huperzia serrata were sourced from a commercially available supplier in the United States.
Randomly chosen tablets of the supplied trial medication, as well as a composite have been assessed for purity by an independent laboratory using standard analytic techniques (HPLC) and found to contain between 0.145 mg and 0.166 mg of Huperzine A per tablet. Subject dosing was based on the label potency of the tablets (i.e. 0.200 mg). Tablets were randomly assigned to each subject in a dosing bottle container containing 120 tablets per subject. Each bottle was labeled with a study identifier. subject ID, dose of each tablet, dosing instructions, expiration date, and lot number.
(§3) Eight subjects with drug-resistant epilepsy were provided huperzine A. Six subjects completed the study. Doses were varied as in Table A. Doses were six hours apart. Subjects 1-3 began dosing at 18:00, subjects 4-8 began dosing at 12:00.

CRP = assay: Phase 1 clinical trial, cardiologic marker CRP
Protocol: as §1, §2, §3
(§4) Table B provides biomarker test results. Baseline, peak and change values represented as mean±the standard error of the mean (SEM). Statistical data is included for all subjects excluding subject #7 because that subject was on a conflicting medication. Peak represents peak plasma level or, if unavailable, the nearest values for all values except cardiological markers where peak represents Day 2. The p-values were calculated from one-sided paired t tests.

[2] = Phase 1 clinical trial, renal marker serum creatinine
Protocol: as §1, §2, §3, §4

[3] = Phase 1 clinical trial, renal marker eGFR (creatinine clearance rate); details: excluding #7
Protocol: as §1, §2, §3, §4

IL-1 beta = assay: Phase 1 clinical trial, inflammatory marker IL-1 beta; details: excluding #7
Protocol: as §1, §2, §3, §4

IL-6 [4] = assay: Phase 1 clinical trial, inflammatory marker IL-6 (IITR1); details: excluding #7
Protocol: as §1, §2, §3, §4

IL-6 [5] = assay: Phase 1 clinical trial, inflammatory marker IL-6 (Labcorp, different test center); details: excluding #7
Protocol: as §1, §2, §3, §4

IL-10 = assay: Phase 1 clinical trial, inflammatory marker IL-10; details: excluding #7
Protocol: as §1, §2, §3, §4

IL-17 = assay: Phase 1 clinical trial, inflammatory marker IL-17; details: excluding #7
Protocol: as §1, §2, §3, §4

TNF-alpha = assay: Phase 1 clinical trial, inflammatory marker TNF-alpha; details: excluding #7
Protocol: as §1, §2, §3, §4

MCP-1 = assay: Phase 1 clinical trial, marker MCP-1
Protocol: as §1, §2, §3, §4
Monocyte chemotactic protein-1 (MCP-1) as a marker is implicated in pathogeneses of several diseases characterized by monocytic infiltrates. MCP-1 is involved in the neuroinflammatory processes that take place in the various diseases of the central nervous system, which are characterized by neuronal degeneration. MCP-1 expression in glial cells is increased in epilepsy, brain ischemia, Alzheimer's disease, some encephalomyelitis, and traumatic brain injury.

[6] = Phase 1 clinical trial, ECG recording of cardiac function (heart rate, HRV, TWA, QT, VPB, VT); details: for T-wave alternans (TWA): all leads; for TWA elevated: in the normal range
Protocol: as §1, §2, §3
Heart rate, heart rate variability. T-wave alternans, QT interval, ventricular premature beats, and ventricular tachycardia were studied in all 8 subjects enrolled in the study. […] This individual experienced transient peaks in heart rate and a few ventricular premature beats, probably due to an emesis-related surge in sympathetic nerve activity. […] ECG recordings show a transient disconnect in subjects one.

[7] = peak vs baseline, mean ± SEM, excluding #7
[8] = 8 subjects, full recording period
[9] = 8 subjects, full recording period, listed as huperzine

In the case of C/C=C1\[C@H]2C=C(C)C[C@]1(N)c1ccc(=O)[nH]c1C2 [Huperzine A, (1R,9,13E)-1-amino-13-ethylidene-11-methyl-6-azatricyclo[7.3.1.0^2,7]trideca-2(7),3,10-trien-5-one], the “Peak Plasma” value ([1]; Subject 1, oral tablets, 4 doses 0.40-0.80 mg six hours apart) was 2.6 ng/mL, the “Peak Plasma” value ([1]; Subject 2, 3 doses 0.40-0.80 mg six hours apart) was 6.7 ng/mL and the “Peak Plasma” value ([1]; Subject 3, 12 doses 0.40-0.80 mg six hours apart) was 9.6 ng/mL. For the same molecule, the “Peak Plasma” value ([1]; Subject 4, 11 doses 0.40-0.60 mg six hours apart) was 11.8 ng/mL, the “Peak Plasma” value ([1]; Subject 5, 13 doses 0.40-0.80 mg six hours apart) was 12.9 ng/mL and the “Peak Plasma” value ([1]; Subject 6, 13 doses 0.40-0.60 mg six hours apart) was 15.9 ng/mL. The “Peak Plasma” value ([1]; Subject 7, 13 doses 0.40-0.60 mg six hours apart) was 13.2 ng/mL, the “decrease in CRP” value (CRP; from an average of 2.6±3.0 mg/L, p-value 0.02) was 29% and the “CRP Peak” value (CRP; mean ± SEM, subjects excluding #7, peak = Day 2, baseline 2.6 ± 3.0) was 1.8 ± 2.3 mg/L. The “CRP % Change” value (CRP; peak vs baseline, excluding #7) was −29%, the “CRP Change” value (CRP; [7]) was -0.7 ± 0.8 mg/L and the “decrease in serum creatinine” value ([2]; from an average of 0.9 mg/dL, p-value 0.02) was 18%. For the same molecule, the “Serum creatine Peak” value ([2]; mean ± SEM, excluding #7, at peak plasma level, baseline 0.9 ± 0.3) was 0.7 ± 0.1 mg/dL, the “Serum creatine % Change” value ([2]; peak vs baseline, excluding #7) was −18% and the “Serum creatine Change” value [2, 7] was -0.2 ± 0.2 mg/dL. The “eGFR (flow rate) Peak” value ([3]; mean ± SEM, at peak plasma level, baseline 98.3 ± 23.5) was 107.6 ± 13.4 mL/min/1.73, the “eGFR (flow rate) % Change” value ([3]; peak vs baseline) was 9% and the “eGFR (flow rate) Change” value ([3]; peak vs baseline, mean ± SEM) was 9.3 ± 12.7 mL/min/1.73. For the same molecule, the “IL-1 beta Peak” value (IL-1 beta; mean ± SEM, at peak plasma level, baseline 23.9 ± 12.4) was 30.0 ± 9.8 pg/mL, the “IL-1 beta % Change” value (IL-1 beta; peak vs baseline) was 26% and the “IL-1 beta Change” value (IL-1 beta; peak vs baseline, mean ± SEM) was 6.1 ± 5.2 pg/mL. The “IL-6 (IITR1) Peak” value (IL-6 [4]; mean ± SEM, at peak plasma level, baseline 1.3 ± 0.2) was 2.8 ± 0.7 pg/mL, the “IL-6 (IITR1) % Change” value (IL-6 [4]; peak vs baseline) was 115% and the “IL-6 (IITR1) Change” value (IL-6 [4]; peak vs baseline, mean ± SEM) was 1.5 ± 1.5 pg/mL. The “IL-6 (Labcorp) Peak” value (IL-6 [5]; mean ± SEM, at peak plasma level, baseline 1.8 ± 1.2) was 4.2 ± 2.4 pg/mL, the “IL-6 (Labcorp) % Change” value (IL-6 [5]; peak vs baseline) was 133% and the “IL-6 (Labcorp) Change” value (IL-6 [5]; peak vs baseline, mean ± SEM) was 2.4 ± 2.6 pg/mL. The “IL-10 Peak” value (IL-10; mean ± SEM, at peak plasma level, baseline 7.3 ± 2.7) was 8.8 ± 1.5 pg/mL, the “IL-10 % Change” value (IL-10; peak vs baseline) was 21% and the “IL-10 Change” value (IL-10; peak vs baseline, mean ± SEM) was 1.6 ± 1.6 pg/mL. For the same molecule, the “IL-17 Peak” value (IL-17; mean ± SEM, at peak plasma level, baseline 35.1 ± 17.7) was 36.1 ± 19.2 pg/mL, the “IL-17 % Change” value (IL-17; peak vs baseline) was 3% and the “IL-17 Change” value (IL-17; peak vs baseline, mean ± SEM) was 1.0 ± 1.0 pg/mL. For the same molecule, the “TNF-alpha Peak” value (TNF-alpha; mean ± SEM, at peak plasma level, baseline 1.6 ± 0.4) was 1.3 ± 0.4 pg/mL, the “TNF-alpha % Change” value (TNF-alpha; peak vs baseline) was −15% and the “TNF-alpha Change” value (TNF-alpha; peak vs baseline, mean ± SEM) was -0.2 ± 0.1 pg/mL. The “decrease in levels of MCP-1” value (MCP-1; from an average of 175.2±43.5 pg/mL) was 15%, the “MCP-1 Peak” value (MCP-1; mean ± SEM, excluding #7, at peak plasma level, baseline 175.2 ± 43.5) was 148.9 pg/mL and 148.9 ± 26.3 pg/mL and the “MCP-1 % Change” value (MCP-1; peak vs baseline, excluding #7) was −15%. The “MCP-1 Change” value (MCP-1; [7]) was -26.3 ± 28.6 pg/mL, the “T-wave alternans (TWA)” value [6, 8] was “generally low in all leads” and the “T-wave alternans (TWA)” value [6, 9] was “low TWA levels”. The QTc interval ([6]; 8 subjects, corrected using Bazett's formula) was “none of the 8 subjects in the study exhibited an increase in QTc interval”, the “episodes of ventricular tachycardia” value ([6]; 8 subjects, entire recording period) was “no episodes of ventricular tachycardia occurred in any of the 8 subjects” and the Heart rate [6, 8] was “stable throughout the recordings in all but one subject”. For the same molecule, the QT interval [6, 8] was “unaltered”, the “ventricular premature beat (VPB) count” value [6, 8] was “low” and the Heart rate [6, 9] was 7 of the 8 subjects exhibited stable heart rates. For the same molecule, the “heart rate variability, low frequency/high frequency (LF/HF) ratio” value ([6]; 8 subjects, full recording period, normal range about 1 to about 4) was “stable”, the cardiac electrical activity ([6]; after huperzine administration) was “remains normal” and the LF/HF ratio trend ([6]; during the first 6 hours of recording) was “trend toward lowering of the LF/HF ratio”. The TWA elevated ([6]; subject 1007) was “about 25 μV”, the “increase in heart rate” value ([6]; subject only, apparently related to emesis) was “about 120 beats/min” and the TWA elevated ([6]; subject two, during final 120-beat/min heart rate surge) was “about 30 μV”.
